According to the supplement of paper PMC10307832:

Assays:
Assay in all cases: relative viability (nuclei count vs DMSO), 5 days (fraction); higher = more cells survive
[1] = compound: C1CSC2=C(C(=O)N1)SC3=C2C=C(C=C3)O [kb NB 142-70] + C[C@@H](Oc1cc(-c2cnn(C3CCNCC3)c2)cnc1N)c1c(Cl)ccc(F)c1Cl [Crizotinib] (partner 1 µM)
Procedure, shortened: (§1)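 Medians of duplicate plates are given as relative viability. That measure is the nuclei count in treated wells divided by the count in vehicle wells. Counts were taken on 4× images of lung cancer cell lines in 1536-well plates, 5 days after pin-tool dosing the day after seeding with one drug alone or a fixed anchor-drug dose plus five library-drug doses (not always all listed) in √10 steps.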

[2] = compound: NCC(=O)Nc1ccc(-n2nc(C(F)(F)F)cc2-c2ccc3c(ccc4ccccc43)c2)cc1 + CS(=O)(=O)N1CCN(Cc2cc3nc(-c4cccc5[nH]ncc45)nc(N4CCOCC4)c3s2)CC1 [Pictilisib] (partner 1 µM)
Procedure, shortened: as §1

[3] = compound: NCC(=O)Nc1ccc(-n2nc(C(F)(F)F)cc2-c2ccc3c(ccc4ccccc43)c2)cc1 + COc1cccc2cc(-c3nc([C@H]4CC[C@H](C(=O)O)CC4)n4ncnc(N)c34)[nH]c12 [OSI-027] (partner 0.5 µM)
Procedure, shortened: as §1

[4] = compound: NCC(=O)Nc1ccc(-n2nc(C(F)(F)F)cc2-c2ccc3c(ccc4ccccc43)c2)cc1 + CC1(C)CCC(c2ccc(Cl)cc2)=C(CN2CCN(c3ccc(C(=O)NS(=O)(=O)c4ccc(N[C@H](CCN5CCOCC5)CSc5ccccc5)c(S(=O)(=O)C(F)(F)F)c4)cc3)CC2)C1 [Navitoclax] (partner 0.5 µM)
Procedure, shortened: as §1

Cell Line: UMC-11
- relative viability ([1]; first compound 0.1 µM): 0.698
- relative viability ([1]; first compound 1 µM): 0.601
- relative viability ([1]; first compound 3.162 µM): 0.277
- relative viability ([2]; first compound 0.02 µM): 0.835
- relative viability ([2]; first compound 0.06325 µM): 0.866
- relative viability ([2]; first compound 0.2 µM): 0.858
- relative viability ([2]; first compound 0.6325 µM): 0.732
- relative viability ([2]; first compound 2 µM): 0.828
- relative viability ([3]; first compound 0.02 µM): 0.402
- relative viability ([3]; first compound 0.06325 µM): 0.475
- relative viability ([3]; first compound 0.2 µM): 0.485
- relative viability ([3]; first compound 0.6325 µM): 0.443
- relative viability ([3]; first compound 2 µM): 0.453
- relative viability ([4]; first compound 0.02 µM): 0.303
- relative viability ([4]; first compound 0.06325 µM): 0.349
- relative viability ([4]; first compound 0.2 µM): 0.35
- relative viability ([4]; first compound 0.6325 µM): 0.304
- relative viability ([4]; first compound 2 µM): 0.328
